Data from US12227512B2, “Benzimidazoles and methods of using same” (priority 2019, dated 2025).
Read-outs that look alike come from different tables or passages of the source.

Tests used:
[1] = tested on: Gli-luciferace activity in the SUFU-KO-light cells; assay: SUFU-KO-Light assay, inhibition of Gli-luciferase activity; type: cell-based
From the text: IC50 SUFO-KO-Light values are for inhibition of Gli-luciferace activity in the SUFU-KO-light cells developed by the James Chen laboratory at Stanford University.

[2] = tested on: cap-dependent and Myc 5'-UTR cap-independent translation; assay: Dual luciferase Myc 5' UTR translation reporter in Huh 7.5 cells; type: cell-based; details: Renilla (5' cap) / firefly (Myc 5' UTR) luciferase
From the text: The dual luciferase plasmid construct described by Willis and co-workers was transfected into Huh 7.5 cells. The Renilla luciferase cistron is translated from a 5′ cap, then the Myc 5′ UTR is placed in front of firefly luciferase to evaluate cap-independent translation from the same mRNA. […] This assay is a proxy for c-Myc translation activity. See also Stoneley et al. (2000) Nucleic Acids Res. 28: 687-94.

Gli-1 and c-Myc = assay: Western blot of Gli-1 and c-Myc in SUFU-KO-Light cells; type: cell-based; details: 48 hours, immunoblotting
c-Myc and n-Myc = assay: Western blot for c-Myc and n-Myc in Huh7.5 cells; type: cell-based; details: 2 μM compound, Western blotting
Procedure: Referring to FIG. 8, the ability of Isis-11 (racemic) to inhibit c-Myc and n-Myc was evaluated. Huh7.5 cells were treated with 2 μM compound or no compound as a control. The cells were lysed and harvested at the indicated times. Western blotting was performed using antibodies as shown after serial stripping. […] YB-1 is known to be part of a positive feedback loop with Myc and is also affected by Myc inhibition.

[3] = tested on: Hedgehog signaling (Gli transcription factors); assay: Hedgehog pathway inhibition, cell-based reporter sensitive to Shh ligand; details: read-out: EC50, hedgehog inhibition potency
[4] = tested on: Hedgehog signaling (Gli transcription factors); assay: Hedgehog pathway inhibition, cell-based reporter derived from fibroblast SUFU knockouts; details: read-out: EC50, hedgehog inhibition potency
[5] = tested on: Raji (Burkitt Lymphoma cell line); assay: Raji cell viability / proliferation; details: Homo sapiens, read-out: IC50, Raji cell proliferation
CML CD34+ cells = assay: Colony-forming assay, Chronic Myeloid Leukemia; details: for CML CD34+ colony formation: 0 μM = 100
[6] = Neutral Red (Toxicity) of the antiviral screening; details: human
[7] = Neutral Red (Toxicity) of the antiviral screening; details: African green monkey
[8] = tested on: Dengue virus 2 New Guinea C; assay: In vitro antiviral screening, Visual (Virus yield reduction); details: Huh7; for SI90: Visual (Virus yield reduction)/Neutral Red (Toxicity); for EC90: Dengue virus, Visual (Virus yield reduction)
Zika MR766 [9] = assay: as above; details: Vero 76; for SI90: Assay No. 3, Visual (Virus yield reduction)/Neutral Red (Toxicity); for EC90: Zika virus
[10] = tested on: Dengue virus 2 New Guinea C; assay: In vitro antiviral screening, Neutral Red (Cytopathic effect); details: Huh7; for SI50: Neutral Red (Cytopathic effect/Toxicity); for EC50: Dengue virus, Neutral Red (Cytopathic effect)
Zika MR766 [11] = assay: as above; details: Vero 76; for SI50: Assay No. 3, Neutral Red (Cytopathic effect/Toxicity); for EC50: Zika virus
[12] = tested on: Rift Valley Fever Virus (RVFV); details: reported value; cited from earlier work
MB002 cells = assay: MTT assay, cell proliferation; type: cell-based; details: MB002, MTT, dose for Fa=0.5 inhibition (50%)
[13] = tested on: SUFU-KO-Light cells expressing Gli-luciferase; assay: Dose-effect curves, dual-Glo luciferase, Compusyn; type: cell-based; details: SUFU-KO-Light, Gli-luciferase, Fa=0.5
[14] = Huh-7, Control drug, Assay No. 1
[15] = Huh-7, Control drug, Assay No. 2
[16] = inhibition of Gli-luciferase activity, read-out: IC50 (μM) SUFU-KO-Light

Q: With `CN(C)CCCn1c(N)nc2ccc3c(c21)CC(CN(C)C)O3` (racemic) [Isis-11] as the molecule, how does the IC50 ([1]; read-out: IC50 (μM) SUFU-KO-Light, inhibition of Gli-luciferase activity) read?
A: 0.2 µM

Q: And the “effect on cap-dependent and cap-independent translation” value [2]?
A: inhibits both cap-dependent and cap-independent translation

Q: What about the “Gli-1 and c-Myc levels” value (Gli-1 and c-Myc) of the same molecule?
A: decrease both Gli-1 and c-Myc

Q: What about the “c-Myc and n-Myc protein” value (c-Myc and n-Myc) of the same molecule?
A: inhibited at the protein level

Q: What about the EC50 [3] of the same molecule?
A: ~100 nM

Q: And the EC50 [4]?
A: ~100 nM

Q: And the IC50 [5]?
A: 500 nM

Q: What about the colony formation (CML CD34+ cells; 0.8 μM) of the same molecule?
A: completely inhibited

Q: And the “CML CD34+ colony formation” value (CML CD34+ cells; 14-290, 0.1 μM)?
A: 91.81

Q: What about the “CML CD34+ colony formation” value (CML CD34+ cells; 14-290, 0.2 μM) of the same molecule?
A: 19.40

Q: What about the “CML CD34+ colony formation” value (CML CD34+ cells; 14-290, 0.4 μM) of the same molecule?
A: 12.50

Q: What about the “CML CD34+ colony formation” value (CML CD34+ cells; 14-290, 0.8 μM) of the same molecule?
A: 0

Q: What about the “CML CD34+ colony formation” value (CML CD34+ cells; 14-290, 1.6 μM) of the same molecule?
A: 0

Q: And the “CML CD34+ colony formation” value (CML CD34+ cells; 15-186, 0.1 μM)?
A: 87.06

Q: And the “CML CD34+ colony formation” value (CML CD34+ cells; 15-186, 0.2 μM)?
A: 52.10

Q: What about the “CML CD34+ colony formation” value (CML CD34+ cells; 15-186, 0.4 μM) of the same molecule?
A: 38.81

Q: What about the “CML CD34+ colony formation” value (CML CD34+ cells; 15-186, 0.8 μM) of the same molecule?
A: 0

Q: What about the “CML CD34+ colony formation” value (CML CD34+ cells; 15-186, 1.6 μM) of the same molecule?
A: 0

Q: What about the “CML CD34+ colony formation” value (CML CD34+ cells; AVG, 0.1 μM) of the same molecule?
A: 89.44

Q: What about the “CML CD34+ colony formation” value (CML CD34+ cells; AVG, 0.2 μM) of the same molecule?
A: 35.75

Q: And the “CML CD34+ colony formation” value (CML CD34+ cells; AVG, 0.4 μM)?
A: 25.66

Q: What about the “CML CD34+ colony formation” value (CML CD34+ cells; AVG, 0.8 μM) of the same molecule?
A: 0

Q: What about the “CML CD34+ colony formation” value (CML CD34+ cells; AVG, 1.6 μM) of the same molecule?
A: 0

Q: And the EC50 (CML CD34+ cells; read-out: EC50, CML CD34+ colony formation)?
A: ~150 nM

Q: What about the EC50 (CML CD34+ cells; read-out: EC50, inhibition of colony formation) of the same molecule?
A: ~150 nM

Q: And the CC50 ([6]; CC50, Assay No. 1, Neutral Red (Cytopathic effect/Toxicity) line)?
A: 6900 nM

Q: What about the CC50 ([6]; CC50, Assay No. 1, Neutral Red (Toxicity), line of the virus yield reduction assay) of the same molecule?
A: 6900 nM

Q: And the CC50 ([6]; CC50, Assay No. 2, Neutral Red (Cytopathic effect/Toxicity) line)?
A: 2400 nM

Q: What about the CC50 ([6]; CC50, Assay No. 2, Neutral Red (Toxicity), line of the virus yield reduction assay) of the same molecule?
A: 2400 nM

Q: What about the CC50 [7] of the same molecule?
A: 20000 nM

Q: What about the SI90 ([8]; Assay No. 1) of the same molecule?
A: 2.6

Q: What about the SI90 ([8]; Assay No. 2) of the same molecule?
A: 6.3

Q: What about the EC90 ([8]; Huh-7, Assay No. 1) of the same molecule?
A: 2700 nM

Q: And the EC90 ([8]; Huh-7, Assay No. 2)?
A: 380 nM

Q: What about the SI90 (Zika MR766 [9]) of the same molecule?
A: 22

Q: What about the EC90 (Zika MR766 [9]) of the same molecule?
A: 930 nM

Q: What about the SI50 ([10]; Assay No. 1) of the same molecule?
A: 3.8

Q: And the SI50 ([10]; Assay No. 2)?
A: 4.9

Q: What about the EC50 ([10]; Huh-7, Assay No. 1) of the same molecule?
A: 1800 nM

Q: What about the EC50 ([10]; Huh-7, Assay No. 2) of the same molecule?
A: 490 nM

Q: And the SI50 (Zika MR766 [11])?
A: 23

Q: What about the EC50 (Zika MR766 [11]) of the same molecule?
A: 880 nM

Q: With `Nc1ncnc2c([C@H]3N[C@@H](CO)[C@H](O)[C@@H]3O)c[nH]c12` [BCX4430] as the molecule, how does the EC50 [12] read?
A: 41600 nM

Q: For `N.N.[Cl][Pt][Cl]` [Cisplatin, reference compound], which IC50 (MB002 cells; read-out: Dose Cis) is on record?
A: 780 nM

Q: Which CC50 ([6]; Huh7 cells, CC50, Control drug, Assay No. 1, Neutral Red (Cytopathic effect/Toxicity) line) does the source give for `O=c1cnn([C@@H]2O[C@H](CO)[C@@H](O)[C@H]2O)c(=O)[nH]1` [Compound 6-azauridine, 6-azauridine, reference compound] here?
A: > 100 µg/mL

Q: What about the CC50 ([6]; Huh7 cells, CC50, Control drug, Assay No. 1, Neutral Red (Toxicity), line of the virus yield reduction assay) of the same molecule?
A: > 100 µg/mL

Q: What about the CC50 ([6]; Huh7 cells, CC50, Control drug, Assay No. 2, Neutral Red (Cytopathic effect/Toxicity) line) of the same molecule?
A: 27 µg/mL

Q: And the CC50 ([6]; Huh7 cells, CC50, Control drug, Assay No. 2, Neutral Red (Toxicity), line of the virus yield reduction assay)?
A: 27 µg/mL

Q: And the CC50 ([7]; Vero 76 cells)?
A: 26.5 µg/mL

Q: What about the SI90 ([8]; Assay No. 1) of the same molecule?
A: >10

Q: What about the SI90 ([8]; Assay No. 2) of the same molecule?
A: 15

Q: What about the EC90 [8, 14] of the same molecule?
A: 10 µg/mL

Q: And the EC90 [8, 15]?
A: 1.8 µg/mL

Q: What about the SI90 (Zika MR766 [9]) of the same molecule?
A: 0

Q: And the EC90 (Zika MR766 [9])?
A: > 26.5 µg/mL

Q: What about the SI50 ([10]; Assay No. 1) of the same molecule?
A: >19

Q: What about the SI50 ([10]; Assay No. 2) of the same molecule?
A: 15

Q: And the EC50 [10, 14]?
A: 5.3 µg/mL

Q: What about the EC50 [10, 15] of the same molecule?
A: 1.8 µg/mL

Q: And the SI50 (Zika MR766 [11])?
A: 40

Q: What about the EC50 (Zika MR766 [11]) of the same molecule?
A: 0.66 µg/mL

Q: With `CN(C)CC1COc2ccc3nc4n(c3c2C1)CC(CN(C)C)CN4` (stereo not drawn) [IBIS-560146] as the molecule, how does the IC50 [1, 16] read?
A: > 2 µM

Q: For `CC(C)n1nc(-c2ccc3oc(N)nc3c2)c2c(N)ncnc21` [Ink-128, reference compound], which IC50 (MB002 cells; read-out: Dose Ink) is on record?
A: 60 nM

Q: What about the EC50 ([13]; read-out: EC50 as single agent) of the same molecule?
A: 6 nM

Q: What about the EC50 ([13]; unit from FIG. 15 legend, read-out: Dose Ink) of the same molecule?
A: 6.13 nM

Q: With `CN(C)CCCn1c(N)nc2ccc(OCCN(C)C)cc21` [Isis-4] as the molecule, how does the IC50 [1, 16] read?
A: 10 µM

Q: With `CN(C)CCCn1c(N)nc2ccc3c(c21)CC(CN(C)C)CO3` (stereo not drawn) [Isis-12] as the molecule, how does the IC50 [1, 16] read?
A: 1.5 µM

Q: With `CN(C)CC1CNc2nc3ccc4c(c3n2C1)CC(CN(C)C)O4` (stereo not drawn) [Isis-075] as the molecule, how does the IC50 [1, 16] read?
A: 0.36 µM

Q: For `Cc1sc2c(c1C)C(c1ccc(Cl)cc1)=N[C@@H](CC(=O)OC(C)(C)C)c1nnc(C)n1-2` [JQ1, reference compound], which “Gli-1 and c-Myc levels” value (Gli-1 and c-Myc) is on record?
A: decrease both Gli-1 and c-Myc
